Patent US20090202453A1, “Oral Composition” (Hindustan Lever Limited, priority 2004, published 2009)

Experiments:
[1] = upper aqueous solution pH attained without precipitating zinc hydroxide; assay type: physicochemical; conditions: 1:3 molar ratio of zinc to ligand
[2] = binding affinity of one ligand with free zinc ion; recorded at pH 7.4

pH at which zinc hydroxide precipitates [1]	pH at which zinc hydroxide precipitates ([1]; listed as acetate)	zinc-ligand (log Ks1) [2]	Compound
5.82	below 6		CC(=O)O [acetic acid]
>10		5.16	NCC(=O)O [glycine]
